Measurements reported in US20130165475A1, “DEUTERIUM-ENRICHED HETEROCYCLIC COMPOUNDS AS KINASE INHIBITORS” (ASCEPION PHARMACEUTICALS, INC., priority 2010, published 2013).
Counter-ions that a name gives are not always drawn.

Assays:
EphB4 = target: T1, EphB4 (Homo sapiens, UniProt P54760); experiment: EphB4 cell-based assay (quantitative Western blotting, PC-3 cells, Ephrin-B2 stimulated); details: compound at 100 nM; PC-3 human prostate cancer cells; Ephrin-B2 stimulation; read-out: % EphB4 kinase activity remains
T1 construct: EphB4 autophosphorylation in PC-3 human prostate cancer cells; host or cells: PC-3 human prostate cancer cells
T1 sequence (P54760 16-987): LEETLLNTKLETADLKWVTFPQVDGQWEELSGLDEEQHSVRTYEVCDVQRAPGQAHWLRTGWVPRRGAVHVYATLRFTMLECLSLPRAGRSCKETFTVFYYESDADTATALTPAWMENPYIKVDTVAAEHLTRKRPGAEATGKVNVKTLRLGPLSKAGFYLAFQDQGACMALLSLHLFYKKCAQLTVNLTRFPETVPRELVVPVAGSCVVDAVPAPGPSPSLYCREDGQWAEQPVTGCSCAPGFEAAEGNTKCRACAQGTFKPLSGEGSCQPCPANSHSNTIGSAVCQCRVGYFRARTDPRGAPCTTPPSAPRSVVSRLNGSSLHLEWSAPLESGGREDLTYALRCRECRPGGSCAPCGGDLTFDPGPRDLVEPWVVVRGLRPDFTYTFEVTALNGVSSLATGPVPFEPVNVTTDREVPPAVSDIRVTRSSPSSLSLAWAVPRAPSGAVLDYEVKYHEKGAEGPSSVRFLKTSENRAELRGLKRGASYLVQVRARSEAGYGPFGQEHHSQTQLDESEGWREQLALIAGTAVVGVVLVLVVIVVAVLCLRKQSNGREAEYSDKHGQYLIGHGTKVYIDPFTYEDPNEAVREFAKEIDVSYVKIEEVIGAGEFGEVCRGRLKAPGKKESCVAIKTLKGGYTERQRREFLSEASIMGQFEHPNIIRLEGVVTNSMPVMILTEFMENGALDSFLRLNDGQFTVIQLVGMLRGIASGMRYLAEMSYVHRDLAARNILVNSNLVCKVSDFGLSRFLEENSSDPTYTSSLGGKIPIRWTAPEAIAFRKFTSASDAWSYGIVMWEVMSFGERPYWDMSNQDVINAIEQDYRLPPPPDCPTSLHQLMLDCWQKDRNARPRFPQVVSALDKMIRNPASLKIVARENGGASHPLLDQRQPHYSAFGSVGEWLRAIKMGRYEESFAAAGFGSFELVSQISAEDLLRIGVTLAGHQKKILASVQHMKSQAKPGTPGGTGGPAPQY
Text: A standard image-based quantitative Western blotting assay for EphB4 kinase activity can be used to test or screen the compounds of this invention and to identify EphB4 antagonists.
The kinase activity of EphB4 in cells depends on its autophosphorylation level stimulated by the binding to its ligand Ephrin-B2. High level of EphB4 autophosphorylation in PC-3 human prostate cancer cells (ATCC, USA) induced by the application of Ephrin-B2 to the cell culture can be observed by regular Western blotting assay.
A compound to be tested was first dissolved in DMSO to a concentration of 10 mM and stored at −20° C. On the day of screening procedure, the compound in DMSO was added into DMEM medium to a final concentration of 100 nM. Two hours later, Ephrin-B2 ([…]) was added into DMEM medium to stimulate the production of phosphor-EphB4. The phosphor-EphB4 was detected based on its molecular weight and with anti-phosphor protein antibody PY-20 in cell lysate from approximately 5×10^5 PC-3 cells by Western blotting followed by imaging quantification. The relative level of EphB4 kinase activity was quantified as the ratio between the amount of phosphor-EphB4 and that of total Actin proteins.

VEGFR2 = target: T2, VEGFR2 (Homo sapiens, UniProt P35968); experiment: VEGFR2 cell-based assay (ELISA, phosphor-/total VEGFR2 in transfected CHO cells); details: compound at 100 nM; CHO cells transfected with full length VEGFR2; FBS stimulation; read-out: % VEGFR2 kinase activity remains
T2 construct: expressed in transfected cells; host or cells: CHO cells
T2 sequence (P35968 20-1356): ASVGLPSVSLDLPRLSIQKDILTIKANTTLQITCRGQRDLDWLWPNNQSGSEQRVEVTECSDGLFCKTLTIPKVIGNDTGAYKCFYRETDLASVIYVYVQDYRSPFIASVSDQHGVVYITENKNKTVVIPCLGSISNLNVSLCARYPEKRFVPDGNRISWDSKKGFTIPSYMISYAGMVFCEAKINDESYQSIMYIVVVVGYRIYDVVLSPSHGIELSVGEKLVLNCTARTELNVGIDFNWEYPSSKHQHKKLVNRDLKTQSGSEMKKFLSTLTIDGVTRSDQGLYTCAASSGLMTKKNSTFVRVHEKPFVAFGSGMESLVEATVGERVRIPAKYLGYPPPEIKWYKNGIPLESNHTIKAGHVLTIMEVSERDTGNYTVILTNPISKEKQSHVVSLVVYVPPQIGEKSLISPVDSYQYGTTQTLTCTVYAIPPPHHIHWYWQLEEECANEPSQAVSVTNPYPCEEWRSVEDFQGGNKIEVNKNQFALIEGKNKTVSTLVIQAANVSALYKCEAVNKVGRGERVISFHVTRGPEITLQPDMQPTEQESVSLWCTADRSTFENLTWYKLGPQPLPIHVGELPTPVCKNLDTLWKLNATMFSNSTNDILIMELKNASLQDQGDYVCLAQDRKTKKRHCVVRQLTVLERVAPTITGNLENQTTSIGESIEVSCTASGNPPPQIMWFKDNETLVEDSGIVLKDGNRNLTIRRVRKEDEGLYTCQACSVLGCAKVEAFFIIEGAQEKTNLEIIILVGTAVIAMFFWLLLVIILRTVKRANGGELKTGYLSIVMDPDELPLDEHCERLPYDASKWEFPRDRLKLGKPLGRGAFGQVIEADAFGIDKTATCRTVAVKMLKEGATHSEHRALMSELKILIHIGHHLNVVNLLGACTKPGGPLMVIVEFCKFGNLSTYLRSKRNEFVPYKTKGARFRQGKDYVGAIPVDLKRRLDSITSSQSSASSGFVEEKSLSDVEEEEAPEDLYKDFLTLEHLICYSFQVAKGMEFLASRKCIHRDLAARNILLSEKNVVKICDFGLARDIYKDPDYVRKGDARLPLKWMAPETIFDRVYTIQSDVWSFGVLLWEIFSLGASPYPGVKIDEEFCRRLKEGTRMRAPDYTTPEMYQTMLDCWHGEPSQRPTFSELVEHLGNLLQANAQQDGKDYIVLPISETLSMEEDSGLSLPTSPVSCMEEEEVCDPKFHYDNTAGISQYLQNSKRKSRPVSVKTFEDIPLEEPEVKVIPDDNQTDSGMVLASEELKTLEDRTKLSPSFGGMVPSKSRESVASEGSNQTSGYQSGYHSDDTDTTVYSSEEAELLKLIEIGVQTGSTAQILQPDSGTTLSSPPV
Text: A standard cell-based assay for VEGFR2 kinase activity can be used to test or screen the compounds of this invention and to identify VEGFR2 antagonists. In this example, ELISA kits (R&D Systems, Inc., Minneapolis, Minn. 55413, USA) were used.
The activity of VEGFR2 in cells depended on its autophosphorylation level by various factors including growth factors. In order to induce the cell to produce VEGFR2, full length of VEGFR2 sequence was cloned into PC-DNA3.1 vector, the plasmid was then transfected into CHO cells. After 48 hours, the expression of VEGFR2 in transfected CHO cells was confirmed by regular western blotting.
A compound to be tested was first dissolved in DMSO to a concentration of 10 mM and stored at −20° C. One day before the test, CHO cells transfected with full length VEGFR2 plasmid were grown in Dulbecco's Modified Eagle Medium (DMEM) without the presence of serum. On the day of the test, the compounds with various concentrations in DMSO (from 0.5 nM to 500 nM) were added into DMEM. Two hours later, 20% of FBS (Fetal Bovine Serum) was added into the medium to stimulate the production of phosphor-VEGFR2. Cell lysate from approximately 5×10^5 transfected CHO cells were reacted with anti-phosphor VEGFR2 or anti-total VEGFR2 antibody in 96-well plates, in the presence of detection antibody. The phosphor-VEGFR2 or total VEGFR2 were detected with Streptavidin-HRP(R&D Systems), followed by chemiluminescent detection. The level of VEGFR2 kinase activity was quantified as the ratio between the amount of phosphor- and that of total VEGFR2 proteins.

Row | remaining activity at 0.1 µM (EphB4) [%] | remaining activity at 0.1 µM (VEGFR2) [%] | Structure (SMILES)
1 | < 70 | < 70 | [2H]C([2H])(c1ccnc(N)c1)N1CCc2c(NC(=O)Nc3cc(Cl)ccc3OC)cccc21 [Example 1, 1-[1-[(2-Amino-4-pyridyl)-dideuteriomethyl]indolin-4-yl]-3-(5-chloro-2-methoxyphenyl)urea]
2 | < 70 | < 70 | [2H]C([2H])([2H])Oc1ccc(Cl)cc1NC(=O)Nc1cccc2c1CCN2C([2H])([2H])c1ccnc(N)c1 [Example 3, 1-[1-[(2-Amino-4-pyridyl)-dideuteriomethyl]indolin-4-yl]-3-[5-chloro-2-(trideuteriomethoxy)phenyl]urea]
3 | < 70 | < 70 | [2H]C([2H])([2H])Oc1ccc(Cl)cc1NC(=O)Nc1cccc2c1ccn2C([2H])([2H])c1ccnc(N)c1 [Example 4, 1-[1-[(2-amino-4-pyridyl)-dideuteriomethyl]indol-4-yl]-3-[5-chloro-2-(trideuteriomethoxy)phenyl]urea]
4 | < 70 | < 70 | [2H]C([2H])([2H])Oc1ccc(Cl)cc1NC(=O)Nc1cccc2c1CCN2Cc1ccnc(N)c1 [Example 5, 1-[1-[(2-Amino-4-pyridyl)methyl]indolin-4-yl]-3-[5-chloro-2-(trideuteriomethoxy)phenyl]urea]
5 | < 70 | ≥ 70 | [2H]C([2H])([2H])Oc1ccc(Cl)cc1NC(=O)Nc1cccc2c1ccn2Cc1ccnc(N)c1 [Example 6, 1-[1-[(2-amino-4-pyridyl)methyl]indol-4-yl]-3-[5-chloro-2-(trideuteriomethoxy)phenyl]urea]
6 | ≥ 70 | < 70 | Cl.[2H]C([2H])([2H])Oc1ccc(Cl)cc1NC(=O)Nc1cccc2c1CCN2C([2H])([2H])c1ccnc2[nH]ccc12 [Example 7, 1-[5-Chloro-2-(trideuteriomethoxy)phenyl]-3-[1-[dideuterio(1H-pyrrolo[2,3-b]pyridin-4-yl)methyl]indolin-4-yl]urea hydrochloride]
7 | ≥ 70 | < 70 | Cl.[2H]C([2H])([2H])Oc1ccc(Cl)cc1NC(=O)Nc1cccc2c1ccn2C([2H])([2H])c1ccnc2[nH]ccc12 [Example 8, 1-[5-chloro-2-(trideuteriomethoxy)phenyl]-3-[1-[dideuterio(1H-pyrrolo[2,3-b]pyridin-4-yl)methyl]indol-4-yl]urea hydrochloride]
8 | ≥ 70 | < 70 | [2H]C([2H])(c1ccnc2[nH]ccc12)N1CCc2c(NC(=O)Nc3cc(Cl)ccc3OC)cccc21 [Example 9, 1-(5-Chloro-2-methoxyphenyl)-3-[1-[dideuterio(1H-pyrrolo[2,3-b]pyridin-4-yl)methyl]indolin-4-yl]urea hydrochloride]
9 | ≥ 70 | < 70 | [2H]C([2H])(c1ccnc2[nH]ccc12)n1ccc2c(NC(=O)Nc3cc(Cl)ccc3OC)cccc21 [Example 10, 1-(5-chloro-2-methoxyphenyl)-3-[1-[dideuterio(1H-pyrrolo[2,3-b]pyridin-4-yl)methyl]indol-4-yl]urea hydrochloride]
10 | < 70 | < 70 | [2H]C([2H])(c1ccnc2[nH]ccc12)N1CCc2c(NC(=O)Nc3cc(Cl)ccc3F)cccc21 [Example 11, 1-(5-Chloro-2-fluorophenyl)-3-[1-[dideuterio(1H-pyrrolo[2,3-b]pyridin-4-yl)methyl]indolin-4-yl]urea hydrochloride]
11 | < 70 | < 70 | [2H]C([2H])(c1ccnc2[nH]ccc12)n1ccc2c(NC(=O)Nc3cc(Cl)ccc3F)cccc21 [Example 12, 1-(5-chloro-2-fluorophenyl)-3-[1-[dideuterio(1H-pyrrolo[2,3-b]pyridin-4-yl)methyl]indol-4-yl]urea hydrochloride]
12 | ≥ 70 | < 70 | [2H]C([2H])(c1ccnc2[nH]ccc12)N1CCc2c(NC(=O)Nc3cccc(C)c3)cccc21 [Example 13, 1-[1-[Dideuterio(1H-pyrrolo[2,3-b]pyridin-4-yl)methyl]indolin-4-yl]-3-(m-tolyl)urea hydrochloride]
13 | < 70 | < 70 | [2H]C([2H])(c1ccnc2[nH]ccc12)n1ccc2c(NC(=O)Nc3cccc(C)c3)cccc21 [Example 14, 1-[1-[dideuterio(1H-pyrrolo[2,3-b]pyridin-4-yl)methyl]indol-4-yl]-3-(m-tolyl)urea hydrochloride]
14 | ≥ 70 | < 70 | [2H]C(c1c[nH]c2ncccc12)N1CCc2c(NC(=O)Nc3cc(Cl)ccc3OC([2H])([2H])[2H])cccc21 (centres unmarked) [Example 15, 1-[5-Chloro-2-(trideuteriomethoxy)phenyl]-3-[1-[deuterio(1H-pyrrolo[2,3-b]pyridin-3-yl)methyl]indolin-4-yl]urea]
15 | ≥ 70 | < 70 | [2H]C(c1c[nH]c2ncccc12)n1ccc2c(NC(=O)Nc3cc(Cl)ccc3OC([2H])([2H])[2H])cccc21 (centres unmarked) [Example 16, 1-[5-chloro-2-(trideuteriomethoxy)phenyl]-3-[1-[deuterio(1H-pyrrolo[2,3-b]pyridin-3-yl)methyl]indol-4-yl]urea]
16 | < 70 | < 70 | [2H]C(c1c[nH]c2ncccc12)N1CCc2c(NC(=O)Nc3cc(Cl)ccc3OC)cccc21 (centres unmarked) [Example 17, 1-(5-Chloro-2-methoxyphenyl)-3-[1-[deuterio(1H-pyrrolo[2,3-b]pyridin-3-yl)methyl]indolin-4-yl]urea]
17 | < 70 | < 70 | [2H]C(c1c[nH]c2ncccc12)n1ccc2c(NC(=O)Nc3cc(Cl)ccc3OC)cccc21 (centres unmarked) [Example 18, 1-(5-chloro-2-methoxyphenyl)-3-[1-[deuterio(1H-pyrrolo[2,3-b]pyridin-3-yl)methyl]indol-4-yl]urea]
18 | ≥ 70 | < 70 | [2H]C(c1c[nH]c2ncccc12)N1CCc2c(NC(=O)Nc3cc(Cl)ccc3F)cccc21 (centres unmarked) [Example 19, 1-(5-Chloro-2-fluorophenyl)-3-[1-[deuterio(1H-pyrrolo[2,3-b]pyridin-3-yl)methyl]indolin-4-yl]urea]
19 | ≥ 70 | < 70 | [2H]C(c1c[nH]c2ncccc12)n1ccc2c(NC(=O)Nc3cc(Cl)ccc3F)cccc21 (centres unmarked) [Example 20, 1-(5-chloro-2-fluorophenyl)-3-[1-[deuterio(1H-pyrrolo[2,3-b]pyridin-3-yl)methyl]indol-4-yl]urea]
